# Experiments:
# Format in all cases: in vivo, Wistar rats
# [1] = Content of short-chain fatty acids in the feces of rats with rheumatoid arthritis (GCMS); conditions: four weeks after booster immunization
# Experimental: (§1) MRS liquid media (containing 0.05 g/100 mL cysteine) were respectively inoculated with the B. breve CCFM1078 obtained in Example 1 and LGG and anaerobically cultured at 37° C. for 18 h, and then transferred into fresh MRS liquid media (containing 0.05 g/100 mL cysteine) and cultured at same conditions for 24 h. Bacteria were centrifuged at 6000 g for 15 min, washed with 0.9 g/100 mL normal saline, and centrifuged again at 6000 g for 10 min to obtain the bacteria. The bacteria of the B. breve CCFM1078 and the LGG were resuspended to a cell concentration of 5×10^9 CFU/mL with sterile normal saline with a concentration of 0.9 g/100 mL, and bacterial solutions containing the B. breve CCFM1078 and the LGG were obtained.
# (§2) Sixty 7-week-old SPF (Specific Pathogen Free) female Wistar rats were raised at a room temperature of 22-24° C., a humidity of 40-60%, and an alternation of 12 h/12 h day and night. After being raised for 1 week under the condition of ad libitum, the rats were randomly divided into 5 groups with 12 rats in each group. The 5 groups were a normal group, a model group, a drug group administered with methotrexate by gavage, an LGG group administered with LGG by gavage, and a CCFM1078 group administered with B. breve CCFM1078 by gavage.
# The experiment was started after the rats were adaptively raised for one week, and lasted for eight weeks. During the two weeks before modelling, each rat in the normal group, the drug group and the model group was administered by gavage with 1.5 mL of sterile normal saline with a concentration of 0.9 g/100 mL per day, each rat in the LGG group was administered by gavage with 1.5 mL of an LGG bacterial solution with a concentration of 5×10^9 CFU/mL per day, and each rat in the CCFM1078 group was administered by gavage with 1.5 mL of a B. breve CCFM1078 bacterial solution with a concentration of 5×10^9 CFU/mL per day. The third week to the fourth week was a modelling period. On the first day of modelling, a bovine type II collagen solution (Chondrex, 20022) and a Freund's incomplete adjuvant (Chondrex, 7002) were mixed in equal volumes and emulsified to form a complete emulsion (the emulsion was prepared for immediate use, and the prepared emulsion was used within 1 h). A rat was anesthetized with isoflurane and immobilized, the whole rat tail root was disinfected with 75% (v/v) alcohol, and then the rat was subjected to primary immunization. In the primary immunization, 0.15 mL of the complete emulsion was accurately pipetted and injected subcutaneously at 1.5 cm from the tail root of the rat. One week later, booster immunization was conducted by the same treatment method, that is, 0.15 mL of the complete emulsion was accurately pipetted and injected subcutaneously at 2.0 cm from the tail root of the rat. The rats in the normal group were injected with only the same volume of sterile normal saline by the same method. […]
# [2] = system: rats with rheumatoid arthritis (type II collagen-induced arthritis model); assay: Body weight, joint thickness and clinical score of rats with type II collagen-induced arthritis; conditions: CIA rats
# Experimental: A Type II Collagen-induced arthritis (CIA) model is a classic RA animal model. The onset of CIA has many similarities with rheumatoid arthritis (RA), such as synovial hyperplasia, pannus formation, and cartilage destruction. At present, […]. Therefore, in Examples 5-9, a type II collagen-induced arthritis (CIA) model was used as an RA animal model, and LGG was used as a control.
# as §1
# 60 7-week-old SPF (Specific Pathogen Free) female Wistar rats were raised at a room temperature of 22-24° C., a humidity of 40-60%, and an alternation of 12 h/12 h day and night. […]
# IL-10 = assay: Level of IL-10 in the serum of rats with rheumatoid arthritis (ELISA); conditions: four weeks after booster immunization; model group 1.64 ng/L, normal group 1.59 ng/L
# Experimental: as §1
# (§3) Sixty 7-week-old SPF (Specific Pathogen Free) female Wistar rats were raised at a room temperature of 22-24° C., a humidity of 40-60%, and an alternation of 12 h/12 h day and night. After being raised for 1 week under the condition of ad libitum, the rats were randomly divided into 5 groups with 12 rats in each group. […]
# Four weeks after the booster immunization, blood was collected and the rats were sacrificed. The rat serum was collected, and the level of IL-10 in the serum of the rats in each group were determined by an ELISA kit.
# Th17 cells = assay: Proportion of Th17 cells in the mesenteric lymph nodes of rats with rheumatoid arthritis (flow cytometry); conditions: four weeks after booster immunization; model group 13.97 times the normal group
# Experimental: as §1, §2
# The experiment was started after the rats were adaptively raised for one week, and lasted for eight weeks. […]
# IL-1β = assay: Level of IL-1β in the serum of rats with rheumatoid arthritis (ELISA); conditions: four weeks after booster immunization; model group 835 ng/L, normal group 143 ng/L
# Experimental: as §1
# as §3, with “60” for “Sixty”
# (§4) Four weeks after the booster immunization, blood was collected and the rats were sacrificed. The rat serum was collected, and the levels of IL-1β and TNFα in the serum of the rats in each group were determined by an ELISA kit.
# TNFα = assay: Level of TNFα in the serum of rats with rheumatoid arthritis (ELISA); conditions: four weeks after booster immunization; model group 14 ng/L, normal group 9.8 ng/L
# Experimental: as §1
# as §3, with “60” for “Sixty”
# as §4
smiles,measurement,setting,value
"CN(Cc1cnc2nc(N)nc(N)c2n1)c1ccc(C(=O)N[C@@H](CCC(=O)O)C(=O)O)cc1 [methotrexate, Methotrexate]",content of acetic acid in the feces relative to the model group,[1],1.1 times
same,content of butyric acid in the feces relative to the model group,[1],1.3 times
same,content of isobutyric acid in the feces relative to the model group,[1],1.3 times
same,content of pentanoic acid in the feces relative to the model group,[1],1 times
same,content of propionic acid in the feces relative to the model group,[1],1.2 times
same,paw thickness (comparison in words),[2]; FIG. 3,significantly lower than that of the rats in the model group and restored to normal in the last week
same,body weight change (trend),"[2]; gavage, after booster immunization, FIG. 2",not significant
same,concentration of IL-10 in the serum,IL-10,1.62 ng/L
same,proportion of Th17 cells in the mesenteric lymph nodes relative to the model group,Th17 cells,12.7%
same,level of IL-1β in the serum,IL-1β,159 ng/L
same,level of TNFα in the serum,TNFα,12 ng/L
